Results: patent publication US10167262B2, “Herbicidal substituted 3-arylpyrazoles” (FMC CORPORATION, priority 2014, dated 2019)

The compounds below were run on waterhemp_RES2, (ALS & HPPD resistant common waterhemp, Amaranthus rudis) (assay: Test E postemergence greenhouse test, plant response rating 0-100). Conditions: 31 g ai/ha, scale 0 to 100.
Assay type: in vivo
Method: At the same time, plants from these crop and weed species and also waterhemp_RES1, (ALS & Triazine resistant common waterhemp, Amaranthus rudis), and waterhemp_RES2, (ALS & HPPD resistant common waterhemp, Amaranthus rudis) were planted in pots containing Redi-Earth® planting medium (Scotts Company, 14111 Scottslawn Road, Marysville, Ohio 43041) comprising spaghnum peat moss, vermiculite, wetting agent and starter nutrients were treated with postemergence applications of test chemicals formulated in the same manner. Plants ranged in height from 2 to 18 cm for postemergence treatments (1- to 4-leaf stage).
Treated plants and controls were maintained in a greenhouse for 14 to 21 days, after which time all species were compared to controls and visually evaluated. Plant response ratings, summarized in Table E, are based on a scale of 0 to 100 where 0 is no effect and 100 is complete control. A dash (-) response means no test result.

Compound	Plant response rating, Waterhemp_RES2
CCn1cc(C(=O)c2cccs2)c(-c2cc(Cl)cc(Cl)c2)n1 [Compound 18]	65

Same assay, conditions: 62 g ai/ha, scale 0 to 100

Compound	Plant response rating, Waterhemp_RES2
CCn1cc(C(=O)c2cccs2)c(-c2cc(Cl)cc(Cl)c2)n1 [Compound 18]	80

Same assay, conditions: 125 g ai/ha, scale 0 to 100

Compound	Plant response rating, Waterhemp_RES2
CCn1cc(C(=O)c2cccs2)c(-c2cc(Cl)cc(Cl)c2)n1 [Compound 18]	85

Same assay, conditions: 250 g ai/ha, scale 0 to 100

Compound	Plant response rating, Waterhemp_RES2
CCn1cc(C(=O)c2cccs2)c(-c2cc(Cl)cc(Cl)c2)n1 [Compound 18]	90

Same assay, conditions: 500 g ai/ha, scale 0 to 100

Compound	Plant response rating, Waterhemp_RES2
CCn1cc(C(=O)c2cccs2)c(-c2cc(Cl)cc(Cl)c2)n1 [Compound 18]	95

The compounds below were run on cocklebur (common cocklebur, Xanthium strumarium) (assay: Test C postemergence greenhouse test, plant response rating 0-100). Conditions: 62 g ai/ha.
Assay type: in vivo
In short: (§1)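 Scores run from 0, meaning no effect, to 100, meaning complete control, and come from visual comparison with untreated controls. Treatment was a postemergence application to plants 2–18 cm tall. Assessment followed 13 to 15 days of greenhouse growth.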

Compound	Plant response rating (0 to 100), Cocklebur
CCn1cc(C(=O)c2cccs2)c(-c2cc(Cl)cc(Cl)c2)n1 [Compound 18]	5

Same assay, conditions: 125 g ai/ha

Compound	Plant response rating (0 to 100), Cocklebur
CCn1cc(C(=O)c2cccs2)c(-c2cc(Cl)cc(Cl)c2)n1 [Compound 18]	5

Same assay, conditions: 250 g ai/ha, scale 0 to 100

Compound	Plant response rating, Cocklebur
CCn1cc(C(=O)c2cccs2)c(-c2cc(Cl)cc(Cl)c2)n1 [Compound 18]	15

Same assay, conditions: 500 g ai/ha, scale 0 to 100

Compound	Plant response rating, Cocklebur
CCn1cc(C(=O)c2cccs2)c(-c2cc(Cl)cc(Cl)c2)n1 [Compound 18]	20

The compounds below were run on woolly cupgrass (Eriochloa villosa) in the same assay as above. Conditions: 62 g ai/ha.
Assay type: in vivo
In short: as §1

Compound	Plant response rating (0 to 100), Cupgrass, Woolly
CCn1cc(C(=O)c2cccs2)c(-c2cc(Cl)cc(Cl)c2)n1 [Compound 18]	5

Same assay, conditions: 125 g ai/ha

Compound	Plant response rating (0 to 100), Cupgrass, Woolly
CCn1cc(C(=O)c2cccs2)c(-c2cc(Cl)cc(Cl)c2)n1 [Compound 18]	10

Same assay, conditions: 250 g ai/ha, scale 0 to 100

Compound	Plant response rating, Cupgrass, Woolly
CCn1cc(C(=O)c2cccs2)c(-c2cc(Cl)cc(Cl)c2)n1 [Compound 18]	15

Same assay, conditions: 500 g ai/ha, scale 0 to 100

Compound	Plant response rating, Cupgrass, Woolly
CCn1cc(C(=O)c2cccs2)c(-c2cc(Cl)cc(Cl)c2)n1 [Compound 18]	20

The compounds below were run on windgrass (Apera spica-venti) in the same assay as above. Conditions: 62 g ai/ha.
Assay type: in vivo
In short: as §1

Compound	Plant response rating (0 to 100), Windgrass
CCn1cc(C(=O)c2cccs2)c(-c2cc(Cl)cc(Cl)c2)n1 [Compound 18]	0

Same assay, conditions: 125 g ai/ha

Compound	Plant response rating (0 to 100), Windgrass
CCn1cc(C(=O)c2cccs2)c(-c2cc(Cl)cc(Cl)c2)n1 [Compound 18]	0

Same assay, conditions: 250 g ai/ha, scale 0 to 100

Compound	Plant response rating, Windgrass
CCn1cc(C(=O)c2cccs2)c(-c2cc(Cl)cc(Cl)c2)n1 [Compound 18]	0

Same assay, conditions: 500 g ai/ha, scale 0 to 100

Compound	Plant response rating, Windgrass
CCn1cc(C(=O)c2cccs2)c(-c2cc(Cl)cc(Cl)c2)n1 [Compound 18]	5

Each compound was assayed on downy bromegrass (Bromus tectorum) in the same assay as above. Conditions: 62 g ai/ha.
Assay type: in vivo
In short: as §1

Compound	Plant response rating (0 to 100), Bromegrass, Downy
CCn1cc(C(=O)c2cccs2)c(-c2cc(Cl)cc(Cl)c2)n1 [Compound 18]	0

Same assay, conditions: 125 g ai/ha, scale 0 to 100

Compound	Plant response rating, Bromegrass, Downy
CCn1cc(C(=O)c2cccs2)c(-c2cc(Cl)cc(Cl)c2)n1 [Compound 18]	0

Same assay, conditions: 250 g ai/ha, scale 0 to 100

Compound	Plant response rating, Bromegrass, Downy
CCn1cc(C(=O)c2cccs2)c(-c2cc(Cl)cc(Cl)c2)n1 [Compound 18]	0

Same assay, conditions: 500 g ai/ha, scale 0 to 100

Compound	Plant response rating, Bromegrass, Downy
CCn1cc(C(=O)c2cccs2)c(-c2cc(Cl)cc(Cl)c2)n1 [Compound 18]	0

These compounds were tested on green foxtail (Setaria viridis) in the same assay as above. Conditions: 62 g ai/ha.
Assay type: in vivo
In short: as §1

Compound	Plant response rating (0 to 100), Foxtail, Green
CCn1cc(C(=O)c2cccs2)c(-c2cc(Cl)cc(Cl)c2)n1 [Compound 18]	0

Same assay, conditions: 125 g ai/ha

Compound	Plant response rating (0 to 100), Foxtail, Green
CCn1cc(C(=O)c2cccs2)c(-c2cc(Cl)cc(Cl)c2)n1 [Compound 18]	0

Same assay, conditions: 250 g ai/ha, scale 0 to 100

Compound	Plant response rating, Foxtail, Green
CCn1cc(C(=O)c2cccs2)c(-c2cc(Cl)cc(Cl)c2)n1 [Compound 18]	0

Same assay, conditions: 500 g ai/ha, scale 0 to 100

Compound	Plant response rating, Foxtail, Green
CCn1cc(C(=O)c2cccs2)c(-c2cc(Cl)cc(Cl)c2)n1 [Compound 18]	0

Each compound was assayed on canarygrass (Phalaris minor) in the same assay as above. Conditions: 62 g ai/ha.
Assay type: in vivo
In short: as §1

Compound	Plant response rating (0 to 100), Canarygrass
CCn1cc(C(=O)c2cccs2)c(-c2cc(Cl)cc(Cl)c2)n1 [Compound 18]	0

Same assay, conditions: 125 g ai/ha

Compound	Plant response rating (0 to 100), Canarygrass
CCn1cc(C(=O)c2cccs2)c(-c2cc(Cl)cc(Cl)c2)n1 [Compound 18]	0

Same assay, conditions: 250 g ai/ha, scale 0 to 100

Compound	Plant response rating, Canarygrass
CCn1cc(C(=O)c2cccs2)c(-c2cc(Cl)cc(Cl)c2)n1 [Compound 18]	0

Same assay, conditions: 500 g ai/ha, scale 0 to 100

Compound	Plant response rating, Canarygrass
CCn1cc(C(=O)c2cccs2)c(-c2cc(Cl)cc(Cl)c2)n1 [Compound 18]	5

What follows are compounds tested on deadnettle (henbit deadnettle, Lamium amplexicaule) in the same assay as above. Conditions: 62 g ai/ha.
Assay type: in vivo
In short: as §1

Compound	Plant response rating (0 to 100), Deadnettle
CCn1cc(C(=O)c2cccs2)c(-c2cc(Cl)cc(Cl)c2)n1 [Compound 18]	20

Same assay, conditions: 125 g ai/ha

Compound	Plant response rating (0 to 100), Deadnettle
CCn1cc(C(=O)c2cccs2)c(-c2cc(Cl)cc(Cl)c2)n1 [Compound 18]	40

Same assay, conditions: 250 g ai/ha, scale 0 to 100

Compound	Plant response rating, Deadnettle
CCn1cc(C(=O)c2cccs2)c(-c2cc(Cl)cc(Cl)c2)n1 [Compound 18]	55

Same assay, conditions: 500 g ai/ha, scale 0 to 100

Compound	Plant response rating, Deadnettle
CCn1cc(C(=O)c2cccs2)c(-c2cc(Cl)cc(Cl)c2)n1 [Compound 18]	60

These compounds were tested on winter barley (Hordeum vulgare) in the same assay as above. Conditions: 62 g ai/ha.
Assay type: in vivo
In short: as §1

Compound	Plant response rating (0 to 100), Barley
CCn1cc(C(=O)c2cccs2)c(-c2cc(Cl)cc(Cl)c2)n1 [Compound 18]	0

Same assay, conditions: 125 g ai/ha, scale 0 to 100

Compound	Plant response rating, Barley
CCn1cc(C(=O)c2cccs2)c(-c2cc(Cl)cc(Cl)c2)n1 [Compound 18]	0

Same assay, conditions: 250 g ai/ha, scale 0 to 100

Compound	Plant response rating, Barley
CCn1cc(C(=O)c2cccs2)c(-c2cc(Cl)cc(Cl)c2)n1 [Compound 18]	0

Same assay, conditions: 500 g ai/ha, scale 0 to 100

Compound	Plant response rating, Barley
CCn1cc(C(=O)c2cccs2)c(-c2cc(Cl)cc(Cl)c2)n1 [Compound 18]	0

Each compound was assayed on surinam grass (Brachiaria decumbens) in the same assay as above. Conditions: 62 g ai/ha.
Assay type: in vivo
In short: as §1

Compound	Plant response rating (0 to 100), Surinam Grass
CCn1cc(C(=O)c2cccs2)c(-c2cc(Cl)cc(Cl)c2)n1 [Compound 18]	5

Same assay, conditions: 125 g ai/ha

Compound	Plant response rating (0 to 100), Surinam Grass
CCn1cc(C(=O)c2cccs2)c(-c2cc(Cl)cc(Cl)c2)n1 [Compound 18]	5

Same assay, conditions: 250 g ai/ha, scale 0 to 100

Compound	Plant response rating, Surinam Grass
CCn1cc(C(=O)c2cccs2)c(-c2cc(Cl)cc(Cl)c2)n1 [Compound 18]	10

Same assay, conditions: 500 g ai/ha, scale 0 to 100

Compound	Plant response rating, Surinam Grass
CCn1cc(C(=O)c2cccs2)c(-c2cc(Cl)cc(Cl)c2)n1 [Compound 18]	10
